According to patent US20230111310A1, “CARBOXYLIC ACID DERIVATIVE-SUBSTITUTED IMINO ARYL COMPOUND, PREPARATION METHOD THEREFOR, HERBICIDAL COMPOSITION AND USE THEREOF” (Qingdao Kingagroot Chemical Compound Co., Ltd., priority 2020, published 2023):

Legend:
Test in all cases: Weeding effect in post-emergence stage
Format in all cases: in vivo
Conditions in all cases: fresh weight control rate level
[1] = system: Abutilon theophrasti
Outline: (§1)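 Read-out is growth control rate, counted 3 weeks post-spray and averaged over three repeats. Greenhouse plants at the 2-3 leaf stage received spray-tower application at 500, 250, 125, 60, 30, 15 or 7.5 g/ha, with methyl oleate EC (1.5 liter/ha) and Tween 80 added.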

[2] = system: Alopecurus japonicus
Outline: as §1

[3] = system: Digitaria sanguinalis
Outline: as §1

[4] = system: Eleusine indica
Outline: as §1

[5] = system: Setaria viridis
Outline: as §1

[6] = system: Echinochloa crusgalli
Outline: as §1

| Compound | Weeding effect in post-emergence stage, Abutilon theophrasti (level) ([1]; Dose 15 g/ha) | Weeding effect in post-emergence stage, Alopecurus japonicus (level) ([2]; Dose 15 g/ha) | Weeding effect in post-emergence stage, Digitaria sanguinalis (level) ([3]; Dose 15 g/ha) | Weeding effect in post-emergence stage, Eleusine indica (level) ([4]; Dose 15 g/ha) | Weeding effect in post-emergence stage, Setaria viridis (level) ([5]; Dose 15 g/ha) | Weeding effect in post-emergence stage, Echinochloa crusgalli (level) ([6]; Dose 15 g/ha) | other results |
| --- | --- | --- | --- | --- | --- | --- | --- |
| CC(=NC(=O)C(C)ON=Cc1cc(-n2c(=O)cc(C(F)(F)F)n(C)c2=O)c(F)cc1Cl)c1ccccc1 (stereo not drawn) [Compound 453] |  |  |  |  |  |  | Weeding effect in post-emergence stage, Abutilon theophrasti (level) ([1]; Dose 30 g/ha): 5 (Level 5: growth control rate is above 85%); Weeding effect in post-emergence stage, Alopecurus japonicus (level) ([2]; Dose 30 g/ha): 5 (Level 5: growth control rate is above 85%); Weeding effect in post-emergence stage, Digitaria sanguinalis (level) ([3]; Dose 30 g/ha): 5 (Level 5: growth control rate is above 85%); Weeding effect in post-emergence stage, Eleusine indica (level) ([4]; Dose 30 g/ha): 5 (Level 5: growth control rate is above 85%); Weeding effect in post-emergence stage, Setaria viridis (level) ([5]; Dose 30 g/ha): 5 (Level 5: growth control rate is above 85%); Weeding effect in post-emergence stage, Echinochloa crusgalli (level) ([6]; Dose 30 g/ha): 5 (Level 5: growth control rate is above 85%) |
| CC(O/N=C/c1cc(-n2c(=O)cc(C(F)(F)F)n(C)c2=O)c(F)cc1Cl)C(=O)N1CCOCC1 (stereo not drawn) [Compound 454] |  |  |  |  |  |  | Weeding effect in post-emergence stage, Abutilon theophrasti (level) ([1]; Dose 60 g/ha): 5 (Level 5: growth control rate is above 85%); Weeding effect in post-emergence stage, Alopecurus japonicus (level) ([2]; Dose 60 g/ha): 5 (Level 5: growth control rate is above 85%); Weeding effect in post-emergence stage, Digitaria sanguinalis (level) ([3]; Dose 60 g/ha): 5 (Level 5: growth control rate is above 85%); Weeding effect in post-emergence stage, Eleusine indica (level) ([4]; Dose 60 g/ha): 5 (Level 5: growth control rate is above 85%); Weeding effect in post-emergence stage, Setaria viridis (level) ([5]; Dose 60 g/ha): 5 (Level 5: growth control rate is above 85%); Weeding effect in post-emergence stage, Echinochloa crusgalli (level) ([6]; Dose 60 g/ha): 5 (Level 5: growth control rate is above 85%) |
| COC(=O)CCCO/N=C/c1cc(-n2c(=O)cc(C(F)(F)F)n(C)c2=O)c(F)cc1Cl [Compound 485] | 5 (Level 5: growth control rate is above 85%) | 5 (Level 5: growth control rate is above 85%) | 5 (Level 5: growth control rate is above 85%) | 5 (Level 5: growth control rate is above 85%) | 5 (Level 5: growth control rate is above 85%) | 5 (Level 5: growth control rate is above 85%) |  |
| CCOC(=O)C(CC(F)(F)F)O/N=C/c1cc(-n2c(=O)cc(C(F)(F)F)n(C)c2=O)c(F)cc1Cl (stereo not drawn) [Compound 486] | 5 (Level 5: growth control rate is above 85%) | 5 (Level 5: growth control rate is above 85%) | 5 (Level 5: growth control rate is above 85%) | 5 (Level 5: growth control rate is above 85%) | 5 (Level 5: growth control rate is above 85%) | 5 (Level 5: growth control rate is above 85%) |  |
| C=CCC(O/N=C/c1cc(-n2c(=O)cc(C(F)(F)F)n(C)c2=O)c(F)cc1Cl)C(=O)OC (stereo not drawn) [Compound 487] | 5 (Level 5: growth control rate is above 85%) | 5 (Level 5: growth control rate is above 85%) | 5 (Level 5: growth control rate is above 85%) | 5 (Level 5: growth control rate is above 85%) | 5 (Level 5: growth control rate is above 85%) | 5 (Level 5: growth control rate is above 85%) |  |
| COC(=O)C(O/N=C/c1cc(-n2c(=O)cc(C(F)(F)F)n(C)c2=O)c(F)cc1Cl)C1CCC1 (stereo not drawn) [Compound 488] | 5 (Level 5: growth control rate is above 85%) | 5 (Level 5: growth control rate is above 85%) | 5 (Level 5: growth control rate is above 85%) | 5 (Level 5: growth control rate is above 85%) | 5 (Level 5: growth control rate is above 85%) | 5 (Level 5: growth control rate is above 85%) |  |
| COC(=O)C(O/N=C/c1cc(-n2c(=O)cc(C(F)(F)F)n(C)c2=O)c(F)cc1Cl)C1CCCC1 (stereo not drawn) [Compound 489] | 5 (Level 5: growth control rate is above 85%) | 5 (Level 5: growth control rate is above 85%) | 5 (Level 5: growth control rate is above 85%) | 5 (Level 5: growth control rate is above 85%) | 5 (Level 5: growth control rate is above 85%) | 5 (Level 5: growth control rate is above 85%) |  |
| COC(=O)C(O/N=C/c1cc(-n2c(=O)cc(C(F)(F)F)n(C)c2=O)c(F)cc1Cl)C1CCCCC1 (stereo not drawn) [Compound 490] | 5 (Level 5: growth control rate is above 85%) | 5 (Level 5: growth control rate is above 85%) | 5 (Level 5: growth control rate is above 85%) | 5 (Level 5: growth control rate is above 85%) | 5 (Level 5: growth control rate is above 85%) | 5 (Level 5: growth control rate is above 85%) |  |
| CCSC(=O)C(C)O/N=C/c1cc(-n2c(=O)n(C)c(=O)n(C)c2=O)c(F)cc1Cl (stereo not drawn) [Compound 491] | 5 (Level 5: growth control rate is above 85%) | 5 (Level 5: growth control rate is above 85%) | 5 (Level 5: growth control rate is above 85%) | 5 (Level 5: growth control rate is above 85%) | 5 (Level 5: growth control rate is above 85%) | 5 (Level 5: growth control rate is above 85%) |  |
| COC(=O)C(OC)O/N=C/c1cc(-n2c(=O)cc(C(F)(F)F)n(C(OC)C(=O)OC)c2=O)c(F)cc1Cl (stereo not drawn) [Compound 493] | 5 (Level 5: growth control rate is above 85%) | 5 (Level 5: growth control rate is above 85%) | 5 (Level 5: growth control rate is above 85%) | 5 (Level 5: growth control rate is above 85%) | 5 (Level 5: growth control rate is above 85%) | 5 (Level 5: growth control rate is above 85%) |  |
| COC(=O)C(OC)(OC)O/N=C/c1cc(-n2c(=O)cc(C(F)(F)F)n(C)c2=O)c(F)cc1Cl [Compound 494] | 5 (Level 5: growth control rate is above 85%) | 5 (Level 5: growth control rate is above 85%) | 5 (Level 5: growth control rate is above 85%) | 5 (Level 5: growth control rate is above 85%) | 5 (Level 5: growth control rate is above 85%) | 5 (Level 5: growth control rate is above 85%) |  |
